The record followed here is ChEMBL document CHEMBL4811261, “Synthesis and biological evaluation of novel benzo[a]pyridazino[3,4-c]phenazine derivatives” (Bioorg Med Chem Lett, 2021).

One test deals with KB. As to the kind of experiment: Cytotoxicity against human KB cells assessed as cell viability measured by MTT assay. It is filed as functional, cell-based. On the technique in general: Formazan colour is commonly taken as a measure of viable cells.
A further test relates to HepG2. The test is described as follows: Cytotoxicity against human HepG2 cells assessed as cell viability measured by MTT assay. It is filed as functional, cell-based.
The nature of test [1]: Cytotoxicity against human Lu1 cells assessed as cell viability measured by MTT assay. In kind it is functional, cell-based.
The subject of another test is MCF7. As to the kind of experiment: Cytotoxicity against human MCF7 cells assessed as cell viability measured by MTT assay. It is filed as functional, cell-based.
The test system of a further test is HEK293. As to the kind of experiment: Cytotoxicity against human HEK293 cells assessed as cell viability measured by MTT assay. It is filed as cell-based.
The next test relates to Staphylococcus aureus. As to the kind of experiment: Antibacterial activity against Staphylococcus aureus measured by broth microdilution method. It is filed as functional, organism-based.
The test system of a further test is Bacillus subtilis. The test is described as follows: Antibacterial activity against Bacillus subtilis measured by broth microdilution method. It is filed as functional, organism-based.
Test [2] deals with Limosilactobacillus fermentum. As to the kind of experiment: Antibacterial activity against Lactobacillus fermentum measured by broth microdilution method. In kind it is functional, organism-based.
The test system of a further test is Escherichia. As to the kind of experiment: Antibacterial activity against Escherichia measured by broth microdilution method. It is filed as functional, organism-based. A general note: Dilution methods test growth across graded concentrations, often in twofold steps.
Another test has as its system Pseudomonas aeruginosa. As to the kind of experiment: Antibacterial activity against Pseudomonas aeruginosa measured by broth microdilution method. It is filed as functional, organism-based.
The test system of the next test is Salmonella enterica. The test is described as follows: Antibacterial activity against Salmonella enterica measured by broth microdilution method. In kind it is functional, organism-based.
A further test deals with Candida albicans. The test is described as follows: Antifungal activity against Candida albicans measured by broth microdilution method. It is filed as functional, organism-based.

The term IC50 denotes the midpoint of a concentration-inhibition curve. Consider `CN1N=C(c2ccc(Br)cc2)C(c2ccc(Br)cc2)c2c1c1ccccc1c1nc3ccccc3nc21` (stereo not given), for which the IC50 is above 100 µM in the test on KB; above 100 µM in the test with HepG2; above 100 µM in test [1]; above 100 µM in the test on MCF7; above 100 µM in the test on HEK293; 4.21 µM with Staphylococcus aureus. Besides, the IC50 in the test with Bacillus subtilis was 5.91 µM; in test [2] it was above 100 µM; in the test with Escherichia, above 100 µM; in the test on Pseudomonas aeruginosa, above 100 µM; with Salmonella enterica, above 100 µM; in the test with Candida albicans it was above 100 µM.
With `Cc1c2ccncc2c(C)c2c1[nH]c1ccccc12` [ELLIPTECINE], the IC50 with KB came to 1.26 µM; in the test on HepG2 it was 1.34 µM; in test [1], 1.83 µM; in the test on MCF7, 2.48 µM; in the test with HEK293, 6.58 µM.
Consider `CN1N=C(c2ccc([N+](=O)O)cc2)C(c2ccc([N+](=O)[O-])cc2)c2c1c1ccccc1c1nc3ccccc3nc21` (stereo not given), for which the IC50 (in the test with KB; in the test on HepG2; in test [1]; with MCF7; in the test with HEK293; in the test with Staphylococcus aureus) was above 100 µM throughout. Also, the IC50 in the test with Bacillus subtilis is 77.9 µM; in test [2], above 100 µM; with Escherichia, above 100 µM; in the test on Pseudomonas aeruginosa, above 100 µM; in the test with Salmonella enterica it was above 100 µM; with Candida albicans, above 100 µM.
Consider `CN1N=C(c2ccc3ccccc3c2)C(c2ccc3ccccc3c2)c2c1c1ccccc1c1nc3ccccc3nc21` (stereo not given), for which the IC50 in the test on KB was above 100 µM; with HepG2, 81.4 µM; in test [1], above 100 µM; with MCF7 it was above 100 µM; in the test on HEK293 it was above 100 µM; with Staphylococcus aureus it was above 100 µM. The IC50 (in the test on Bacillus subtilis; in test [2]; in the test on Escherichia; in the test on Pseudomonas aeruginosa; with Salmonella enterica; in the test on Candida albicans) was above 100 µM in each case.
Consider `COc1cccc(C2=NN(C)c3c(c4nc5ccccc5nc4c4ccccc34)C2c2cccc(OC)c2)c1` (stereo not given), for which the IC50 was 64.4 µM in the test on KB; 36.3 µM in the test with HepG2; 56 µM in test [1]; 70.7 µM in the test with MCF7; above 100 µM in the test on HEK293; above 100 µM in the test on Staphylococcus aureus. Besides, the IC50 in the test with Bacillus subtilis is 90.8 µM; in test [2], above 100 µM; in the test with Escherichia, above 100 µM; in the test with Pseudomonas aeruginosa it was above 100 µM; in the test with Salmonella enterica it was above 100 µM; in the test on Candida albicans, above 100 µM.
For `COc1ccc(C2=NN(C)c3c(c4nc5ccccc5nc4c4ccccc34)C2c2ccc(OC)cc2)cc1` (stereo not given), the IC50 in the test with KB is 16.7 µM; in the test with HepG2, 14.6 µM; in test [1], 18.2 µM; with MCF7 it was 21.8 µM; in the test on HEK293, 73.4 µM; with Staphylococcus aureus, above 100 µM. Also, the IC50 (with Bacillus subtilis; in test [2]; in the test on Escherichia; with Pseudomonas aeruginosa; in the test on Salmonella enterica; in the test with Candida albicans) was above 100 µM throughout.
As for `CN1N=C(c2ccc(Cl)cc2)C(c2ccc(Cl)cc2)c2c1c1ccccc1c1nc3ccccc3nc21` (stereo not given), the IC50 (with KB; in the test with HepG2; in [1]; in the test on MCF7; in the test on HEK293; in the test on Staphylococcus aureus) was above 100 µM throughout. Moreover, the IC50 (with Bacillus subtilis; in test [2]; in the test on Escherichia; in the test with Pseudomonas aeruginosa; in the test on Salmonella enterica; with Candida albicans) was above 100 µM in each case.
On to `CC1(C)S[C@@H]2[C@H](NC(=O)[C@H](N)c3ccccc3)C(=O)N2[C@H]1C(=O)O` [AMPICILLIN], for which the IC50 in the test on Staphylococcus aureus came out at 0.02 µM; in the test with Bacillus subtilis, 0.3 µM.
Consider `CN1N=C(c2ccc(S(C)(=O)=O)cc2)C(c2ccc(S(C)(=O)=O)cc2)c2c1c1ccccc1c1nc3ccccc3nc21` (stereo not given), for which the IC50 was 62.5 µM with KB; 44.7 µM in the test with HepG2; above 100 µM in [1]; 62.7 µM in the test with MCF7; above 100 µM in the test on HEK293; above 100 µM in the test on Staphylococcus aureus. Also, the IC50 (in the test on Bacillus subtilis; in test [2]; with Escherichia; in the test with Pseudomonas aeruginosa; in the test on Salmonella enterica; in the test on Candida albicans) was above 100 µM throughout.
On to `CN1N=C(c2cccc(Br)c2)C(c2cccc(Br)c2)c2c1c1ccccc1c1nc3ccccc3nc21` (stereo not given), for which the IC50 in the test with KB was above 100 µM; with HepG2, above 100 µM; in test [1], above 100 µM; in the test with MCF7 it was above 100 µM; in the test on HEK293, above 100 µM; in the test with Staphylococcus aureus, 84.4 µM. Further, the IC50 with Bacillus subtilis was 84.6 µM; in test [2] it was above 100 µM; in the test on Escherichia, above 100 µM; with Pseudomonas aeruginosa, above 100 µM; in the test on Salmonella enterica, above 100 µM; in the test on Candida albicans it was above 100 µM.
For `CN1N=C(c2ccccc2)C(c2ccccc2)c2c1c1ccccc1c1nc3ccccc3nc21` (stereo not given), the IC50 in the test on KB was 19.4 µM; in the test with HepG2 it was 10.5 µM; in test [1] it was 18.6 µM; in the test on MCF7, 22 µM; in the test with HEK293, above 100 µM; in the test with Staphylococcus aureus it was above 100 µM. The IC50 (in the test on Bacillus subtilis; in test [2]; in the test on Escherichia; in the test with Pseudomonas aeruginosa; in the test with Salmonella enterica; in the test on Candida albicans) was above 100 µM in each case.
